Values quoted from earlier work in patent EP4602929A1, “ORAL PRODUCT WITH POWDER COATING” (Nicoventures Trading Limited, priority 2024, dated 2025).

COC(=O)/C=C/C(C)=C\C=C\C(C)=C\C=C\C=C(C)\C=C\C=C(C)\C=C\C(=O)O [bixin, (2E,4E,6E,8E,10E,12E,14E,16Z,18E)-20-methoxy-4,8,13,17-tetramethyl-20-oxoicosa-2,4,6,8,10,12,14,16,18-nonaenoic acid]
solubility in water: insoluble in water

CC(/C=C/C=C(C)/C=C/C(=O)O)=C\C=C\C=C(C)\C=C\C=C(C)\C=C\C(=O)O (stereo in doubt) [norbixin, (2E,4E,6E,8E,10E,12E,14E,16E,18E)-4,8,13,17-tetramethylicosa-2,4,6,8,10,12,14,16,18-nonaenedioic acid]
solubility in water: water soluble
